# Patent publication US10111874B2, “Combination therapies for treatment of cancer” (Araxes Pharma LLC, priority 2014, dated 2018)
# Biological target: T1, KRAS G12C 1-169, his-tagged protein, GDP-loaded (Homo sapiens, UniProt P01116, G12C)
# T1 construct: KRAS G12C 1-169, his-tagged protein, GDP-loaded
# Experiment: Biochemical assay: covalent binding to KRAS G12C analyzed by mass spectrometry; also: test concentration or dose not given here
# Details: compounds 1-47, measured at 24 h
# T1 sequence (P01116 1-169 isoform P01116-2 G12C): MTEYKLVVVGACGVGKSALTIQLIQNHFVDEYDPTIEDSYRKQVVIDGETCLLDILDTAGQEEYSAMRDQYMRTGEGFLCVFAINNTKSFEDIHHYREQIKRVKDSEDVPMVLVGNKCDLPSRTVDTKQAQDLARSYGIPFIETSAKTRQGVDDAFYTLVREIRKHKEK
row,Structure (SMILES),Binding %
1,"C=CC(=O)N1CCN(c2ncnc3[nH]cc(-c4ccccc4Cl)c23)CC1 [Compound I-28, 1-(4-(5-(2-chlorophenyl)-7H-pyrrolo[2,3-d]pyrimidin-4-yl)piperazin-1-yl)prop-2-en-1-one]",+ (+indicates binding activity from 5% to 25%)
2,"C=CC(=O)N1CC(N2CCN(C(=O)CNc3cc(Cl)c(Cl)cc3O)CC2)C1 [Example 38, 1-(3-(4-(2-(4,5-dichloro-2-hydroxyphenylamino)acetyl)piperazin-1-yl)azetidin-1-yl)prop-2-en-1-one]",++ (++indicates binding activity greater than 25% and up to 50%)

# Same assay, conditions: compounds 48-246, measured at 2 h
row,Structure (SMILES),Binding %
1,"C=CC(=O)N1CCN(c2ncnc3cc(-c4cc(F)ccc4O)c(Cl)cc23)CC1 [Compound I-122, 1-(4-(6-chloro-7-(5-fluoro-2-hydroxyphenyl)quinazolin-4-yl)piperazin-1-yl)prop-2-en-1-one]",++ (++indicates binding activity greater than 25% and up to 50%)
2,"C=CC(=O)N1CCN(c2ncnc3cc(-c4c(F)cccc4C(N)=O)c(Cl)cc23)CC1 [Compound I-232, 2-(4-(4-acryloylpiperazin-1-yl)-6-chloroquinazolin-7-yl)-3-fluorobenzamide]",+ (+indicates binding activity from 5% to 25%)
3,"C=CC(=O)N1CCN(c2ncnc3cc(-c4ccnc5ccccc45)c(Cl)cc23)CC1 [Compound I-214, 1-(4-(6-chloro-7-(quinolin-4-yl)quinazolin-4-yl)piperazin-1-yl)prop-2-en-1-one]",+ (+indicates binding activity from 5% to 25%)
4,"C=CC(=O)N1CCN(c2ncnc3cc(-c4ccc5[nH]ncc5c4)c(Cl)cc23)CC1 [Compound I-144, 1-(4-(6-chloro-7-(1H-indazol-5-yl)quinazolin-4-yl)piperazin-1-yl)prop-2-en-1-one]",+ (+indicates binding activity from 5% to 25%)
5,C=CC(=O)N1CCN(c2c(C#N)cnc3cc(-c4ccccc4F)c(Cl)cc23)CC1 [Compound I-127],++++ (++++indicates binding activity greater than 75%)
6,"C=CC(=O)N1CCN(c2ncnc3cc(-c4cc(C5(C#N)CC5)ccc4F)c(Cl)cc23)CC1 [Compound I-143, 1-(3-(4-(4-acryloylpiperazin-1-yl)-6-chloroquinazolin-7-yl)-4-fluorophenyl)cyclopropanecarbonitrile]",+++ (+++indicates binding activity greater than 50% and up to 75%)
7,"C=CC(=O)N1CCN(c2c(C#N)cnc3cc(-c4c(O)cccc4F)c(Cl)cc23)CC1 [Compound I-220, 4-(4-acryloylpiperazin-- yl)-6-chloro-7-(2-fluoro-6-hydroxyphenyl)quinoline-3-carbonitrile]",+++ (+++indicates binding activity greater than 50% and up to 75%)

# Same assay, conditions: compounds 247-342, measured at 30 min
row,Structure (SMILES),Binding %
1,"C=CC(=O)N1CCN(c2ncnc3c(F)c(-c4c(C)ccc5cn[nH]c45)c(F)cc23)CC1 [Compound 298, 1-(4-(6,8-difluoro-7-(6-methyl-1H-indazol-7-yl)-quinazolin-4-yl)piperazin-1-yl)prop-2-en-1-one]",++ (++indicates binding activity greater than 25% and up to 50%)
2,"C#CC1CN(c2ncnc3c(F)c(-c4ccccc4F)c(Cl)cc23)CCN1C(=O)C=C (centres unmarked) [Compound I-252, 1-(4-(6-chloro-8-fluoro-7-(2-fluorophenyl)quinazolin-4-yl)-2-ethynylpiperazin-1-yl)prop-2-en-1-one]",++++ (++++indicates binding activity greater than 75%)
3,"C=CC(=O)N1CCN(c2ncnc3c(OC)c(-c4c(O)cccc4F)c(Cl)cc23)CC1 [Compound 313, 1-(4-(6-chloro-7-(2-fluoro-6-hydroxyphenyl)-8-methoxyquinazolin-4-yl)piperazin-1-yl)prop-2-en-1-one]",+++ (+++indicates binding activity greater than 50% and up to 75%)
4,"CN(C)C/C=C/C(=O)N1CCN(c2ncnc3c(F)c(-c4cc(O)cc5ccccc45)c(Cl)cc23)CC1 [Compound 325, (E)-1-(4-(6-chloro-8-fluoro-7-(3-hydroxynaphthalen-1-yl)quinazolin-4-yl)piperazin-1-yl)-4-(dimethylamino)but-2-en-1-one]",++ (++indicates binding activity greater than 25% and up to 50%)
5,"C/C=C/C(=O)N1CCN(c2ncnc3c(F)c(-c4cc(O)cc5ccccc45)c(Cl)cc23)CC1C (centres unmarked) [Compound 328, (E)-1-(4-(6-chloro-8-fluoro-7-(3-hydroxynaphthalen-1-yl)quinazolin-4-yl)-2-methylpiperazin-1-yl)but-2-en-1-one]",+ (+indicates binding activity from 5% to 25%)
6,"C=CC(=O)N1CCN(c2c(C#N)cnc3cc(-c4c(C)ccc5[nH]ncc45)c(Cl)cc23)CC1 [Compound I-270, 4-(4-acryloylpiperazin-1-yl)-6-chloro-7-(5-methyl-1H-indazol-4-yl)quinoline-3-carbonitrile]",+++ (+++indicates binding activity greater than 50% and up to 75%)
7,"C=CC(=O)N1CCN(c2ncnc3c(F)c(-c4c(C)ccc5[nH]ncc45)c(Cl)cc23)CC1 [Compound 334, 1-(4-(6-chloro-8-fluoro-7-(5-methyl-1H-indazol-4-yl)quinazolin-4-yl)piperazin-1-yl)prop-2-en-1-one]",++++ (++++indicates binding activity greater than 75%)
8,"C=CC(=O)N1CCN(c2ncnc3c(Cl)c(-c4c(O)ccc5ccccc45)c(Cl)cc23)CC1 [Compound 303, 1-(4-(6,8-dichloro-7-(2-hydroxynaphthalen-1-yl)quinazolin-4-yl)piperazin-1-yl)prop-2-en-1-one]",++ (++indicates binding activity greater than 25% and up to 50%)

# Same assay, conditions: determined at 2 hrs
row,Structure (SMILES),Binding %
1,"C=CC(=O)N1CC(N2CCN(C(=O)[C@@H](C)Nc3cc(CC)c(Cl)cc3O)CC2)C1 [II-70, (R)-1-(3-(4-(2-(4-chloro-5-ethyl-2-hydroxyphenylamino)-propanoyl)piperazin-1-yl)azetidin-1-yl)prop-2-en-1-one]",++ (++indicates binding activity greater than 20%)
2,"C=CC(=O)N1CC(N2CCN(C(=O)C3CCCN3c3cc(C4CC4)c(Cl)cc3OC)CC2)C1 (centres unmarked) [II-73, 1-(3-(4-(1-(4-chloro-5-cyclopropyl-2-methoxyphenyl)-pyrrolidine-2-carbonyl)piperazin-1-yl)azetidin-1-yl)prop-2-en-1-one]",+ (+indicates binding activity from 5% to 20%)
3,"C=CC(=O)N1CC(N2CCN(C(=O)Cn3ccc4c(Cl)c(Cl)cc(OC)c43)CC2)C1 [II-75, 1-(3-(4-(2-(4,5-dichloro-7-methoxy-1H-indol-1-yl)acetyl)piperazin-1-yl)azetidin-1-yl)prop-2-en-1-one]",+ (+indicates binding activity from 5% to 20%)
4,"C=CC(=O)N1CC(N2CCN(C(=O)CNc3cc(C4CCC4)c(Cl)cc3O)CC2)C1 [II-53, 1-(3-(4-(2-(4-chloro-5-cyclobutyl-2-hydroxyphenylamino)acetyl)piperazin-1-yl)azetidin-1-yl)prop-2-en-1-one]",++ (++indicates binding activity greater than 20%)

# Same assay, conditions: determined at 24 hrs
row,Structure (SMILES),Binding %
1,C=CC(=O)N1CCC(N2CCN(C(=O)CNc3cc(I)c(Cl)cc3O)CC2)C1 (centres unmarked) [II-11],++++ (++++indicates binding activity greater than 50%)
2,"C=CC(=O)N1CC(N2CCN(C(=O)CNc3cc(Cl)ccc3O)CC2)C1 [II-19, 1-(3-(4-(2-(5-chloro-2-hydroxyphenyl-amino)acetyl)-piperazin-1-yl)azetidin-1-yl)prop-2-en-1-one]",+++ (+++indicates binding activity greater than 25% and up to 50%)
